Structures are written as SMILES.

Drawing on a melting point compilation (Tetko et al.; mined from patent text by program, amines drawn as free bases though some values may be those of a salt), this text covers melting point for 90 compounds.

In general, melting point refers to the temperature, or range, at which the solid turns liquid. In the case of `Cc1cc2c(cc1OCc1ccccc1)OC[C@@H](N1CCC(O)(c3ccc(F)cc3)CC1)[C@H]2O` (relative stereo), the melting point was 201 to 202 °C.
`COc1ccc(-c2cccc(NC(C)=O)c2)cc1OC1CCCC1` registered a melting point of 112 to 114 °C.
Consider `CNC1C(O)CC2C3CCc4cc(OC(=O)C(C)(C)C)ccc4C3CCC21C` (stereo not given), for which the melting point lay in the range of 196 to 199 °C.
As for `O=C1CCCc2c(-c3ccncc3)sc(-c3ccncc3)c21`, the melting point lay in the range of 157 to 160 °C.
As for `Nc1cccc(-c2ccc(Cl)nn2)c1`, the melting point lay within 118 to 121 °C.
In the case of `CC(C)c1cc(O)n(C)n1`, the melting point lay within 120 to 122 °C.
`CS(=O)CCc1nc2nc[nH]c2c2nc(-c3ccc(-c4ccccc4)cc3)nn12` (stereo not given): the melting point was found to be 188 °C.
In the case of `Cn1ncc(/C=C/C(=O)Nc2ccc(Cc3nc(C(=O)O)cs3)cc2)c1-c1ccc(F)cc1`, the melting point was in the range of 226 to 227 °C.
`C#CCOc1cc(-c2ncc(C(F)(F)F)cc2Cl)c(F)cc1Cl` yielded a melting point of 97 to 98 °C.
Next, `O=C1NC(=S)C(c2c[nH]c3ccccc23)=C1c1c[nH]c2ccccc12`: 254 to 257 °C.
In the case of `N#Cc1ccccc1-c1ccc(CNC(=S)NN)cc1` it was 163 to 164 °C.
In the case of `CS(=O)(=O)c1ccc(-c2cnn(-c3ccc(F)c(F)c3)c(=O)c2-c2cccs2)cc1`, the melting point was 189 to 191 °C.
`Cc1ccc(-c2c3c(cc4ccc(O)cc24)-c2ccc(O)cc2CO3)cc1F`: the melting point is 238 to 240 °C.
For `COc1ccc2oc(C)c(Cc3cccc(NS(=O)(=O)C(F)(F)F)c3)c(=O)c2c1`, the melting point lay within 172 to 174 °C.
Turning to `CCCn1nc2c(N)nc3ncccc3c2c1CC(C)(C)C#N`, the melting point lay within 249 to 252 °C.
For the compound `CC(C)(C)C(=O)Nc1nc(O)c2c(n1)NCC(CO)C2` (stereo not given), the melting point lay within 236 to 238 °C.
In turn, `Cc1ccc(S(=O)(=O)N(O)S(=O)(=O)c2ccc(C)cc2)cc1` had a melting point of 125 to 126 °C.
In the case of `FC(F)(F)Oc1ccc(Cn2cnc3c(-c4ccco4)ncnc32)cc1` it was 146 to 147 °C; in that of `CN1C(=O)Cn2cc(C(=O)NCc3ccc(Cl)cc3)c(=O)c3cc(CN4CCOCC4)cc1c32`, 213 to 214 °C; in that of `COC1=NC(=O)c2c1cc1ccc3c(c1c2-c1ccc2c(c1)OCO2)OCO3`, 306 to 308 °C.
On to `CN(C)c1ccnc2c(NC(=O)c3c(Cl)cccc3Cl)cccc12`, for which the melting point is 215 to 216 °C.
In the case of `O=c1[nH]cc(-c2ccncn2)cc1Br`, the melting point was greater than 250 °C.
Compound `COc1ccc2c(c1C=O)Nc1ccccc1S2` came in with a melting point of 155 to 160 °C.
In the case of `CCOC(=O)C(=Cc1c[nH]c2cc(C)ccc12)NC(C)=O` it was 159 to 162 °C.
Next, `c1ccc(CN2CCCC3(CC2)CC(c2ccccc2)=NO3)cc1` (stereo not given): 42 to 57 °C.
As for `COc1ccc2c(c1)CN(CCc1ccc(N)cc1)CC2`, the melting point lay in the range of 82 to 84 °C.
In the case of `COC(=O)c1ccccc1NC(=O)N1CCc2cc(S(=O)(=O)N3CCN(c4cccc(Cl)c4)CC3)ccc21` it was 230 °C; in that of `C=CCOC(=O)CC(C(C)=O)S(=O)(=O)c1ccccc1` (stereo not given), 62 to 64 °C.
Compound `Cc1cc(C)c(C)c(-c2cc3cnc(NCCCN4CCN(C)CC4)nc3nc2NC(=O)NC(C)(C)C)c1C` displayed a melting point of 185 to 198 °C.
Next, `COCC(=O)Nc1nc2ccc(F)cc2s1`: 139 to 140 °C.
Next, `CNC(=O)Oc1cc(C)c(NC(=O)C(F)(F)Cl)c(C)c1`: 163 to 165 °C; `Cc1ccc2c(c1C)OC(=O)C2c1ccc(C(C)C)cc1` (stereo not given): 58 to 60 °C; `CCn1c(C)nc2c(C(=O)OC)c(C(=O)OC)ccc21`: 127 to 128 °C.
In the case of `N#CC1=C(c2ccc(Br)s2)Nc2n[nH]cc2C1c1cccc2nonc12` (stereo not given), the melting point was 208 °C.
Take `Cc1ccc2c(c1)C1=NN(C(=O)c3cccnc3)CC1CO2` (stereo not given): the melting point was in the range of 177 to 178 °C.
Compound `Cc1nc(-n2cc(-c3ccccc3)nn2)sc1C(=O)NCc1ccccc1` registered a melting point of 175 to 178 °C.
In the case of `C#CCN(C(CCn1c(=O)[nH]c(C)c(C)c1=O)C(=O)NO)S(=O)(=O)c1ccc(Oc2ccccc2)cc1` (stereo not given), the melting point is 180 to 181 °C.
In the case of `CSc1nc(Cl)c(I)c(C(F)(F)F)n1` it was 55 to 56 °C; in that of `Cn1nccc1OCc1c(S(C)(=O)=O)ccc(C(=O)C2C(=O)CC(C)(C)CC2=O)c1Cl`, 82 °C; in that of `CC(=O)c1cc2c(Br)cccc2n1S(=O)(=O)c1ccccc1`, 142 to 146 °C.
In the case of `N#CC1CN1C(=O)NC(=O)c1ccc(Cl)cc1` (stereo not given) it was 160 to 162 °C; in that of `O=C(NCC(=O)N1CCSC1)c1cc2cc(Cl)ccc2[nH]1`, 253 to 255 °C.
The compound `CCCc1c(OCCCCCOc2ccc(C(=O)c3ccc(C(=O)O)cc3)cc2CCC(=O)O)ccc2c1OCCC2=O` returned a melting point of 175 to 177 °C.
In the case of `CNC(=O)c1ccc(N2CCNCC2)c(F)c1` it was 174 to 193 °C; in that of `O=C1C=C(c2cccc(C(F)(F)F)c2)CO1`, 124 to 125 °C; in that of `CC#CCOc1ccc(S(=O)(=O)C2(C(=O)NO)CCOCC2)cc1`, 210 °C.
In turn, `COc1cccc(N)c1C(=O)NC1CCN(C(C)CC(C(=O)N(C)C)(c2ccccc2)c2ccccc2)CC1O` (stereo not given) yielded a melting point of 175 °C.
Compound `COc1cc(C=CC(=O)CCCO)cc(OC)c1` gave a melting point of 74 to 77 °C.
In the case of `CCc1nc(/C=C/c2cn(-c3ccccc3)nc2OCc2ccc(OCc3nc(-c4ccc(CC(=O)O)cc4)oc3C)c(OC)c2)co1`, the melting point is 117 to 119 °C.
Next, `CCOC(=O)C(C(=O)Nc1ccc(Br)cc1C)[N+](=O)[O-]` (stereo not given): 126 to 129 °C.
For the compound `CNC(=O)C1(Nc2nc(Nc3cc4c(cc3OC)CCN(CC(=O)N(C)C)CC4)ncc2Cl)CC1`, the melting point lay in the range of 118 to 125 °C.
`CCC(=O)c1ccc(-c2cc(NC(=O)OC(C)(C)C)ccc2C)c(C)c1` returned a melting point of 119 °C.
Compound `NC(=O)c1ccnc(CCCCCCOCCCCCCBr)c1` showed a melting point of 73 to 75 °C.
`Cc1ccc(S(=O)(=O)Cl)c(C)c1NC(=O)CCl` registered a melting point of 148 to 149 °C.
Take `Cc1nccc(C(=O)O)c1-c1nc(-c2ccc(Cl)cc2)cs1`: the melting point lay in the range of 92 to 94 °C.
For the compound `CC1(C)Oc2ccc([N+](=O)[O-])cc2C(n2ccccc2=O)=C1CN`, the melting point turned out to be 231 °C.
Compound `O=C(O)C1=Cc2c(Cl)cc(Cl)cc2OC1C(F)(F)F` (stereo not given) registered a melting point of 190 to 191 °C.
In turn, `CC(C)(C)OC(=O)C(Nc1ccccc1)c1cccc(F)c1` (racemic) returned a melting point of 90 °C.
Next, `CC(=O)C1(O)C=c2ccccc2=NC1C` (stereo not given): 54 to 56 °C.
`COC(=O)/C=C/CSc1nc(N)cc(Cl)n1` showed a melting point of 146 to 149 °C.
In the case of `Nc1nc(NCC2CC2)c2ncn(C3C=CC(CO)C3)c2n1` (stereo not given) it was 130 to 131 °C; in that of `COC(=O)C=C(C)NCC(O)CO` (stereo not given), 109 to 111 °C; in that of `COc1c(OCc2ccccc2)ccc2cc[nH]c12`, 66 to 67 °C.
With `O=C1CCCCC1C(C[N+](=O)[O-])c1ccc(C(F)(F)F)cc1` (racemic), the melting point lay within 107 to 108 °C.
In turn, `COc1ccc(Cn2nc(-c3ccc(OC)cc3)c(-c3ccncc3)cc2=O)cc1` displayed a melting point of 143 °C.
Turning to `Cn1c(=O)c2c(ncn2CC(=O)Nc2ccc(-n3nc(C(F)(F)F)cc3C3CC3)cc2)n(C)c1=O`, the melting point was in the range of 178 to 184 °C.
Next, `Cc1c(-c2ccncc2)[nH]c2ccc(C3=NNC(=O)CC3C)cc12` (stereo not given): 233 to 235 °C; `O=C(CSc1ccccn1)C12CC3CC(CC(C3)C1)C2`: 60 to 61 °C; `COc1ccc(C=Cc2ccc(OC)c(OC)c2)cc1`: 131 to 134 °C.
With `COc1ccc(Oc2ccc3c(c2)OCC(=O)N3)cc1`, the melting point was in the range of 163 to 164 °C.
The compound `Nc1nc(C2CCN(C(=O)Cc3ccc4c(c3)OCO4)CC2)c2ccccc2n1` gave a melting point of 167 to 168 °C.
Take `CNCCCn1c2ccc(O)cc2c2c3c(c(-c4ccccc4)cc21)C(=O)NC3=O`: the melting point lay in the range of 265 to 268 °C.
Consider `N=C(N)Nc1nc(CCCCC(=N)NS(N)(=O)=O)cs1`, for which the melting point is 156 to 157 °C.
In the case of `COc1ncnc(-c2ccc(Cl)cc2Cl)c1C#N` it was 107 to 109 °C.
On to `O=C1CN(c2ccccc2)C(=S)N1c1ccccc1`, for which the melting point was found to be 214 °C.
As to `CCC1CCCCc2c1oc(=O)c(C(c1ccccc1)C1CC1)c2O` (stereo not given), the melting point was in the range of 63 to 71 °C.
`CCOc1cc2c(cn1)[nH]c1ccccc12` came in with a melting point of 130 to 133 °C.
In turn, `CC(C)(C)OC(=O)N1CCC[C@H]1COc1cnc(Cl)c(-c2ccc(Cl)cc2)c1` registered a melting point of 86 to 89 °C.
Next, `CC(C)(C)C(=O)OC(COc1cccc2[nH]ccc12)CN1CCC(COc2ccccc2)CC1` (stereo not given): 103 to 105 °C; `COc1ccccc1-c1cn(N=Cc2ccccc2)c(N)n1`: 166 to 167 °C.
Compound `Cn1ncnc1COc1nn2c(-c3cccnc3)nncc2c1-c1ccccc1F` displayed a melting point of 164 to 166 °C.
As to `CCOP(=O)(O)Cc1cccc(C(F)(F)F)c1`, the melting point was in the range of 48 to 51 °C.
Next, `CC(C)(C)OC(=O)NCCCCCC(=O)OCC1OC(n2cc(C=CBr)c(=O)[nH]c2=O)CC1O` (stereo not given): 204 to 205 °C; `COc1cc(C(C)C)c2c(c1)S(=O)(=O)N(CBr)C2=O`: 157 to 159 °C; `CCN(CC)c1nc2ccccc2n2cnnc12`: 117 to 119 °C.
As to `NC(=O)c1nn(-c2c(Cl)cc(C(F)(F)F)cc2Cl)c(N)c1S(=O)(=O)C(F)(F)F`, the melting point was 217 °C.
In the case of `CCn1c(=O)sc2cc(C(c3ccc([N+](=O)[O-])cc3)n3cncn3)ccc21` (stereo not given) it was 79 to 83 °C.
For `COc1ccc(CC2CCC3NC(=O)CCC3C2)cc1` (stereo not given), the melting point is 194 to 196 °C.
As to `O=c1[nH]c2c(Cl)cccc2s1`, the melting point was 203 to 204 °C.
The compound `COc1ccc(S(=O)(=O)N2CCN(C(=O)c3ccc(Nc4ccnc5cc(C(F)(F)F)ccc45)cc3)CC2)cc1` gave a melting point of 221 to 223 °C.
